{
  "source": "patent US20120302573A1",
  "about": "“METHODS OF INHIBITING PRO MATRIX METALLOPROTEINASE ACTIVATION” (priority 2011, published 2012)",
  "molecular_target": "T1, proMMP9 (Homo sapiens, UniProt P14780)",
  "T1 construct": "host or cells: HFL-1",
  "T1 sequence (P14780 20-707 limits assumed)": "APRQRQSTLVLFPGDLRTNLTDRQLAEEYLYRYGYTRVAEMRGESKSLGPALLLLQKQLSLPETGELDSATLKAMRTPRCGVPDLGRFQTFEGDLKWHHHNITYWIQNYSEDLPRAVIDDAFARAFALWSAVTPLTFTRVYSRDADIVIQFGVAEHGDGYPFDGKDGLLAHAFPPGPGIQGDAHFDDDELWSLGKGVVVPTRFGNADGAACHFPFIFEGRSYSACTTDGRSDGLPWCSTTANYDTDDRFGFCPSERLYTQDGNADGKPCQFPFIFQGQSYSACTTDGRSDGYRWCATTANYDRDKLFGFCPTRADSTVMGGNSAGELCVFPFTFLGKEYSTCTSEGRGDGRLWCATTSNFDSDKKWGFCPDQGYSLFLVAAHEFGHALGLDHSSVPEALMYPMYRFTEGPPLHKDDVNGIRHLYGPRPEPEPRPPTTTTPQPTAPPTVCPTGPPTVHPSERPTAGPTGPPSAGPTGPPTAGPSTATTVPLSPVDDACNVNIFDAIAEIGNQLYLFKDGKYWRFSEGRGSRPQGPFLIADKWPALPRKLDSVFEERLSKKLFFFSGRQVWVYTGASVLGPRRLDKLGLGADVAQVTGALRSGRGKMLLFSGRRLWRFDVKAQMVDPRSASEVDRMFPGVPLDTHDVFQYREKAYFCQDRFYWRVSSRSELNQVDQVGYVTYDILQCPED",
  "experiment": "Activation of proMMP9 by human fetal lung fibroblast (HFL-1) cultures (Western blot)",
  "type": "cell-based",
  "details": "3.3 μM, 72 hrs, mAb-L51/82",
  "protocol": "Compound α was assessed additionally for ability to block the maturation of proMMP9 to active MMP9 in cultures of human fetal lung fibroblasts (HFL-1, American Type Culture Collection #CCL-153). Unlike rat synoviocytes, HFL-1 cells were unable to process proMMP9 to the active form without addition of neutrophil elastase. […] Rather, the function of elastase in this assay may be to inactivate tissue inhibitors of matrix metalloproteinases (TIMPs) that repress endogenous pathways of MMP9 activation (Am J Respir Crit Care Med; 1999; 159:1138-46).\nHLF-1 were maintained in monolayer culture in DMEM with 10% FCS and were used between passage numbers 5-15. HLF-1 were embedded in collagen gels as described for rat SCW synoviocytes (vida supra). […] The plates were cultured an additional 72 hrs, at which time MMP9 secreted into the conditioned media was bound to gelatin-sepharose and evaluated by Western blot analysis as described for the rat synoviocyte cultures (vida supra). mAb-51/82 detected three forms of MMP9 in HFL-1 cultures. […]\nA second experiment was performed to determine if the 80 kD form was mature active MMP9 and to determine the potency of Compound α as an inhibitor of MMP9 maturation in this assay. […] In the absence of Compound α, pAb-1246 readily detected MMP9 with an electrophoretic mobility of approximately 80 kD. […]",
  "data": [
    {"molecule": "Cc1nc(C)c(-c2csc(Nc3cc(S(N)(=O)=O)ccc3OC(C)C)n2)s1", "note": "[Compound α, 3-(2′,4′-Dimethyl-[4,5′]bithiazolyl-2-ylamino)-4-isopropoxy-benzenesulfonamide.HBr]", "values": [
      {"measurement": "Signal Total", "result": 91346, "unit": "INT*mm^2"}
    ]}
  ]
}
